Results: patent US7645881B2, “Methods for treating hepatitis C” (PTC Therapeutics, Inc., priority 2004, dated 2010)

Columns and labels:
[1] = system: HCV replicon; test: microbe, parasite or virus in culture; type: cell-based; conditions: Hepatitis C virus, 48 h, read-out: Replicon IC50s μM
[2] = system: wild-type poliovirus (WT-PV); type: cell-based; conditions: HeLa cells, MOI 0.1, compound for one day, decrease of cytopathic effect
[3] = system: cap-dependent translation; test: Western blot of Fluc protein in pLuc cells (cap-dependent translation); type: cell-based, human; conditions: 20 hours, data not shown

In the case of `CN1CCN(C(=O)c2sc3nc4c(c(C(F)(F)F)c3c2N)CCCCC4)CC1` [Compound 5], the IC50 [1] is reported as over 2 µM, the “WTPV CPE (1.2 μM)” value [2] is reported as 0 and the “WTPV CPE (11.1 μM)” value [2] is reported as 1 (A “1” in the WT-PV CPE columns indicates that the CPE (cytopathic effect) is decreased by 20-50%.). The “WTPV CPE (100 μM)” value [2] was 2 (A “2” in the WT-PV CPE columns indicates that the CPE is decreased by 50-75%.).
In the case of `Nc1c(C(=O)Nc2ccc(C(F)(F)F)cc2)sc2nc3c(cc12)CCCCC3` [Compound 29], the IC50 [1] is reported as over 2 µM, the “WTPV CPE (1.2 μM)” value [2] is reported as 0 and the “WTPV CPE (11.1 μM)” value [2] is reported as 1 (A “1” in the WT-PV CPE columns indicates that the CPE (cytopathic effect) is decreased by 20-50%.). For the same compound, the “WTPV CPE (100 μM)” value [2] was 2 (A “2” in the WT-PV CPE columns indicates that the CPE is decreased by 50-75%.).
In the case of `CCc1c(C)nc2sc(N)c(C#N)c2c1C` [Compound 35, 2-amino-5-ethyl-4,6-dimethylthieno[2,3-b]pyridine-3-carbonitrile], the IC50 [1] is reported as over 2 µM, the melting point is reported as 223 to 225 °C and the “WTPV CPE (1.2 μM)” value [2] is reported as 0. The “WTPV CPE (11.1 μM)” value [2] was 1 (A “1” in the WT-PV CPE columns indicates that the CPE (cytopathic effect) is decreased by 20-50%.) and the “WTPV CPE (100 μM)” value [2] was 2 (A “2” in the WT-PV CPE columns indicates that the CPE is decreased by 50-75%.).
With `CCc1c(C)nc2sc(NC(=O)C(C)(C)C)c(C#N)c2c1C` [Compound 50] the IC50 [1] was over 2 µM, the melting point was 164 to 166 °C and the “WTPV CPE (1.2 μM)” value [2] was 0. For the same compound, the “WTPV CPE (11.1 μM)” value [2] was 1 (A “1” in the WT-PV CPE columns indicates that the CPE (cytopathic effect) is decreased by 20-50%.) and the “WTPV CPE (100 μM)” value [2] was 3 (A “3” in the WT-PV CPE columns indicates that the CPE is decreased by 75-100%.).
For `CCc1c(C)nc2sc(C(=O)SC(C)(C)C)cc2c1C` [Compound 65], the IC50 [1] was 0.5 to 2 µM and the melting point was 109.6 to 110.2 °C.
`COCCN1CCN(CCOc2c(C)nc3sc(C(=O)OC(C)(C)C)c(N)c3c2C)CC1` [Compound 66] showed an IC50 [1] of over 2 µM and a melting point of 79 to 81 °C.
Work on `Cc1nc2sc(C(=O)OC(C)(C)C)c(N)c2c(C)c1OCCN1CCOCC1` [Compound 67, t-butyl 3-amino-4,6-dimethyl-5-(2-morpholin-4-yl-ethoxy)-thieno[2,3-b]pyridine-2-carboxylate] yielded an IC50 [1] of over 2 µM and a melting point of 102 to 104 °C.
With `Cc1nc2sc(C(=O)OC(C)(C)C)c(N)c2c(C)c1OCCN1CCN(C)CC1` [Compound 71] the IC50 [1] was over 2 µM and the melting point was 155.4 to 155.5 °C.
In the case of `COc1ccc(C[C@H](N)C(=O)N[C@H]2[C@@H](O)[C@H](n3cnc4c(N(C)C)ncnc43)O[C@@H]2CO)cc1` [puromycin], the “cap-dependent protein production (luciferase reporter protein level, Western blot)” value [3] is reported as “inhibited”.
